# Test results published in patent US9593109B2, “Bicyclic agonists of GPR131 and uses thereof” (CYMABAY THERAPEUTICS, INC., priority 2011, dated 2017).
# Target: T1, human GPR131 (Homo sapiens, UniProt Q8TDU6)
# T1 construct: expressed in transfected cells
# T1 sequence (Q8TDU6 1-330): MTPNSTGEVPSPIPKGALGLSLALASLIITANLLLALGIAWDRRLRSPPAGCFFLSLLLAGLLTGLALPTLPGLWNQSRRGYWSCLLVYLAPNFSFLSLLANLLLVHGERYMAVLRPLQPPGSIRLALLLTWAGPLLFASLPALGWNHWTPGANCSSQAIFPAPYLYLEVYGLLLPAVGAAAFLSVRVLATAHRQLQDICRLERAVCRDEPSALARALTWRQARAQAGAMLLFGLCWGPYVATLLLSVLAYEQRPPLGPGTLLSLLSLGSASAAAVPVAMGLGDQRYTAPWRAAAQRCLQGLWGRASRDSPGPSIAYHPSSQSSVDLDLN
# Experiment: Stimulation of cAMP (agonism of GPR131), FRET cAMP assay
# Format: cell-based
# Conditions: 0.5 h; 1.1 μM compound; compared to maximal stimulatory activity of lithocholic acid (LCA) determined at 3.3 μM; stable cell line expressing human GPR131; 37° C. for 30 minutes; read-out: Percent Activity @ 1.1 μM (of 3.3 uM LCA) (%)
# Protocol: This assay was developed using a stable cell line expressing human GPR131.
# To measure cAMP activity in response to GPR131 agonists, GPR131 cells suspended in DMEM/F12 medium with 1 mM IBMX were seeded in 384 well plates at 5000 cells per well. After incubating with test compounds at 37° C. for 30 minutes cAMP was measured using a fluorescene resonance energy transfer cAMP kit from Cis Bio (Bedford, Mass.) according to the manufacturer's instructions. Briefly, cells were lysed, and cAMP levels determined by competitive immunoassay using D2 labeled cAMP, and europium cryptate tagged anti cAMP antibody. Decreases in the FRET signal (fluorescence ratio (665 nm/620 […]) correspond to increases in intracellular cAMP levels.
# Activities of test compounds in Table 1 below are expressed as percent activity at 1.1 μM compound compared to the maximal stimulatory activity of lithocholic acid (LCA) (determined at 3.3 μM LCA).
row,activation at 1.1 µM,Structure (SMILES)
1,99.6%,"Fc1cccc(-n2cnnc2-c2c(-c3cc(Cl)ccc3Cl)nc3ccccn23)c1 [Compound 535, 2-(2,5-Dichlorophenyl)-3-(4-(3-fluorophenyl)-4H-1,2,4-triazol-3-yl)imidazo[1,2-a]pyridine]"
2,99.4%,"Clc1ccc(-n2ccnc2-c2c(-c3cc(Cl)ccc3Cl)nc3ccccn23)cc1 [Compound 506, 3-(1-(4-Chlorophenyl)-1H-imidazol-2-yl)-2-(2,5-dichlorophenyl)imidazo[1,2-a]pyridine]"
3,99.7%,"Clc1ccc(-n2ccnc2-c2c(-c3ccccc3Cl)nc3ccccn23)cc1 [Compound 557, 2-(2-Chlorophenyl)-3-(1-(4-chlorophenyl)-1H-imidazol-2-yl)imidazo[1,2-a]pyridine]"
4,100%,"Fc1ccc(-n2cnnc2-c2c(-c3cc(Cl)ccc3Cl)nc3ccccn23)cc1 [Compound 533, 2-(2,5-Dichlorophenyl)-3-(4-(4-fluorophenyl)-4H-1,2,4-triazol-3-yl)imidazo[1,2-a]pyridine]"
5,95.2%,"Clc1ccc(Cl)c(-c2nc3cccnn3c2-c2nncn2-c2ccc3cn[nH]c3c2)c1 [Compound 523, 3-(4-(1H-Indazol-6-yl)-4H-1,2,4-triazol-3-yl)-2-(2,5-dichlorophenyl)imidazo[1,2-b]pyridazine]"
6,96%,"Cc1ccc(-n2cnnc2-c2c(-c3cc(Cl)ccc3Cl)nc3ccccn23)cn1 [Compound 540, 2-(2,5-Dichlorophenyl)-3-(4-(6-methylpyridin-3-yl)-4H-1,2,4-triazol-3-yl)imidazo[1,2-a]pyridine]"
7,99.1%,"Cc1nnc(-c2c(-c3cc(Cl)ccc3Cl)nc3ccccn23)n1-c1ccc(Cl)cc1 [Compound 505, 3-(4-(4-Chlorophenyl)-5-methyl-4H-1,2,4-triazol-3-yl)-2-(2,5-dichlorophenyl)imidazo[1,2-a]pyridine]"
8,93.3%,"Clc1ccc(Cl)c(-c2nc3ccccn3c2-c2nncn2-c2ccc3[nH]ncc3c2)c1 [Compound 514, 5-(3-(2-(2,5-Dichlorophenyl)imidazo[1,2-a]pyridin-3-yl)-4H-1,2,4-triazol-4-yl)-1H-indazole]"
9,99.9%,"Clc1ccc(-n2ncnc2-c2c(-c3cc(Cl)ccc3Cl)nc3ccccn23)cc1 [Compound 554, 3-(1-(4-Chlorophenyl)-1H-1,2,4-triazol-5-yl)-2-(2,5-dichlorophenyl)imidazo[1,2-a]pyridine]"
10,100%,"Clc1ccc(-n2ccnc2-c2c(-c3cc(Cl)ccc3Cl)nc3n2CCCC3)cc1 [Compound 560, 3-(1-(4-Chlorophenyl)-1H-imidazol-2-yl)-2-(2,5-dichlorophenyl)-5,6,7,8-tetrahydroimidazo[1,2-a]pyridine]"
11,100%,"FC(F)(F)c1ccc(-n2cnnc2-c2c(-c3cc(Cl)ccc3Cl)nc3ccccn23)cc1 [Compound 513, 2-(2,5-Dichlorophenyl)-3-(4-(4-(trifluoromethyl)phenyl)-4H-1,2,4-triazol-3-yl)imidazo[1,2-a]pyridine]"
12,100%,"CN(C)c1ccc(-n2cnnc2-c2c(-c3cc(Cl)ccc3Cl)nc3ccccn23)cc1 [Compound 510, 4-(3-(2-(2,5-Dichlorophenyl)imidazo[1,2-a]pyridin-3-yl)-4H-1,2,4-triazol-4-yl)-N,N-dimethylaniline]"
13,98.9%,"S=c1[nH]nc(-c2c(-c3cc(Cl)ccc3Cl)nc3ccccn23)n1-c1ccc(Cl)cc1 [Compound 526, 4-(4-Chlorophenyl)-3-(2-(2,5-dichlorophenyl)imidazo[1,2-a]pyridin-3-yl)-1H-1,2,4-triazole-5(4H)-thione]"
14,83.3%,"O=c1[nH]nc(-c2c(-c3cc(Cl)ccc3Cl)nc3ccccn23)n1-c1ccc(Cl)cc1 [Compound 525, 4-(4-Chlorophenyl)-3-(2-(2,5-dichlorophenyl)imidazo[1,2-a]pyridin-3-yl)-1H-1,2,4-triazol-5(4H)-one]"
15,94.6%,"Clc1ccc(-n2nnnc2-c2c(-c3cc(Cl)ccc3Cl)nc3n2CCCC3)cc1 [Compound 559, 3-(1-(4-Chlorophenyl)-1H-tetrazol-5-yl)-2-(2,5-dichlorophenyl)-5,6,7,8-tetrahydroimidazo[1,2-a]pyridine]"
16,98.4%,"Clc1ccc(Cl)c(-c2nc3ccccn3c2-c2nncn2-c2ccc3scnc3c2)c1 [Compound 518, 5-(3-(2-(2,5-Dichlorophenyl)imidazo[1,2-a]pyridin-3-yl)-4H-1,2,4-triazol-4-yl)benzo[d]thiazole]"

row,Structure (SMILES),activation at 1.1 µM
1,"Clc1ccc(-n2cncc2-c2c(-c3cc(Cl)ccc3Cl)nc3ccccn23)cc1 [Compound 507, 3-(1-(4-Chlorophenyl)-1H-imidazol-5-yl)-2-(2,5-dichlorophenyl)imidazo[1,2-a]pyridine]",100%
